Assay results: publication PMC12087874, “Biaryl Phosphates and Phosphonates as Selective Inhibitors of the Transcription Factor STAT4” (Angewandte Chemie (International Ed. in English), 2025)

Legend:
STAT6 = biological target: T1, STAT6 (Homo sapiens, UniProt P42226); experiment: Competitive fluorescence polarization (FP) assay, STAT6 SH2 domain; assay type: binding; settings: for Ki: Ki derived from IC50; for IC50: mean ± SD, n = 3
T1 sequence (P42226 1-847): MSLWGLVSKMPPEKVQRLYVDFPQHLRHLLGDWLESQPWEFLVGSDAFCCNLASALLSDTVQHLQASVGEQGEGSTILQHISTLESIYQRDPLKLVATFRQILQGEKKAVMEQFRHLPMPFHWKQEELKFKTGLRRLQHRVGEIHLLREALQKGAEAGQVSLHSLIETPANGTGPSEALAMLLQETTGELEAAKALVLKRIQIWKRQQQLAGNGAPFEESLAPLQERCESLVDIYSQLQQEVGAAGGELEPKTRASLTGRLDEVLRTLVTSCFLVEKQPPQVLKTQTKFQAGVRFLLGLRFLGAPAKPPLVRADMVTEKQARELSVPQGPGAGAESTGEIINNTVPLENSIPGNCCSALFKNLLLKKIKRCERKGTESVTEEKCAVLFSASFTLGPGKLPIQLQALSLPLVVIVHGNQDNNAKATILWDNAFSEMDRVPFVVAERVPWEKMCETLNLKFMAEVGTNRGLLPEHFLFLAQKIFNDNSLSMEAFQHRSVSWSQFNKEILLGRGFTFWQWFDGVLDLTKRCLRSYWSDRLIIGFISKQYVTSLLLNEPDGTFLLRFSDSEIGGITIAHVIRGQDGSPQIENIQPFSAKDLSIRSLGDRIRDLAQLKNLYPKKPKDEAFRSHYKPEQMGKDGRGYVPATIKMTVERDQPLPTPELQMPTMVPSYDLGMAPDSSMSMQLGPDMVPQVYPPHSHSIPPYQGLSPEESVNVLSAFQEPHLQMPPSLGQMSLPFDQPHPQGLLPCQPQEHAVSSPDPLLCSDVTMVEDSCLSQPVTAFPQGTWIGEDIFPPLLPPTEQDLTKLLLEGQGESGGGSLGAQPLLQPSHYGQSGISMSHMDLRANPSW
Experimental: (§1) Fluorescence polarization assays
(§2) Competitive fluorescence polarization assays, which measure the abilities of test compounds (dissolved in DMSO) to displace a fluorescent-labeled peptide from the SH2 domain of a STAT protein, were carried out essentially as described. Proteins were used at the following final concentrations: 23 nM or 28 nM for STAT4; between 56 nM and 91 nM for STAT1; 107 nM or 110 nM for STAT3; between 131 nM and 177 nM for STAT5a; between 62 nM and 85 nM for STAT5b; and 101 nM or 106 nM for STAT6. These concentrations represent the approximate […]
(§3) dissociation constant for peptide binding of the respective protein batches used in the assays.
(§4) The following peptides were used: 5-carboxyfluorescein-GpYLPQNID-OH for STAT4; 5-carboxyfluorescein-GpYDKPHVL for STAT1; 5-carboxyfluorescein-GpYLPQTV-NH2 for STAT3; 5-carboxyfluorescein-GpYLVLDKW for STAT5a/b, and 5-carboxyfluorescein- […]
(§5) Gp[…]-OH for STAT6. All peptides were used at a final concentration of 10 nM. The buffer consisted of 10 mM Tris (pH 8.0), 50 mM NaCl, 1 mM EDTA, 1 mM DTT, 0 .1 % Nonidet P-40 substitute, and 2 % DMSO. After incubation of protein and test compound for 1 h at room temperature, the fluorescent -labeled peptide was added. Samples were transferred to 384 - well microtiter plates and fluorescence polarization was read after an additional 60 min of incubation time. Measurements were performed in triplicate. Percent binding was calculated based on a logarithmic curve fit using OriginPro 8G software. IC 50 values were converted to Ki-values via the published equation[3] using the corresponding Excel spread sheet […]
(§6) https://websites.umich.edu/~shaomengwanglab/software/calc_ki/index.html .
(§7) Error bars represent standard deviations. Ligand efficiencies (LE) were calculated by the formula LE = -1,37 x log Ki / number of non-hydrogen atoms.[4] […]

STAT5b = biological target: T2, STAT5b (Homo sapiens, UniProt P51692); experiment: Competitive fluorescence polarization (FP) assay, STAT5b SH2 domain; assay type: binding; settings: for Ki: Ki derived from IC50; for IC50: mean ± SD, n = 3
T2 sequence (P51692 1-787): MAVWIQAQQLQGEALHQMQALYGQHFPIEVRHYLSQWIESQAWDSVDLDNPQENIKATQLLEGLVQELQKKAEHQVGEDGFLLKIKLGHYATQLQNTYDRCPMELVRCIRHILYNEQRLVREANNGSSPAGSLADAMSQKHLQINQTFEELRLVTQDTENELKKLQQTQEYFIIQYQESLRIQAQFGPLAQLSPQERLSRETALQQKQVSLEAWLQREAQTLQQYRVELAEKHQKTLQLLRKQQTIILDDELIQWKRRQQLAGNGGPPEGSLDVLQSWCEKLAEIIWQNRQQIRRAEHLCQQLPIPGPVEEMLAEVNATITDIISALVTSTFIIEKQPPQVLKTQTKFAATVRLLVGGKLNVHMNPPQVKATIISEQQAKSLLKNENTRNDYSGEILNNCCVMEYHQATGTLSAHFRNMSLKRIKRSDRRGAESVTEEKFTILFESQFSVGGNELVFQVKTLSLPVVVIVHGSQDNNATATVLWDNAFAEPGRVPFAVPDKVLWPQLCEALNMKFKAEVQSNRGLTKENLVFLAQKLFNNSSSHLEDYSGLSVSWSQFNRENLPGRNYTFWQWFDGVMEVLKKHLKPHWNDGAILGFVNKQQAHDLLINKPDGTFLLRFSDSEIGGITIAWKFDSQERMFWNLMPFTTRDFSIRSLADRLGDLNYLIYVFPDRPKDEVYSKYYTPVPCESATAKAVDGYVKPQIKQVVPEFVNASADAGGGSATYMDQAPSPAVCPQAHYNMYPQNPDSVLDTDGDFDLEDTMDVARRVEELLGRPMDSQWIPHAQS
Experimental: as §1, §2, §3, §4, §5, §6, §7

SMILES | Ki (STAT6) [µM] | IC50 (STAT6) [µM] | Ki (STAT5b) [µM] | IC50 (STAT5b) [µM]
O=P(O)(O)Oc1ccc(-c2ccc3ccccc3c2)cc1 [Compound 6g] | 9.3 ± 1.1 | 19 ± 2 | 53 ± 5 | 109 ± 11
O=P(O)(O)Oc1ccc(-c2ccc3ccccc3c2)cc1F [Compound 6m] | 29 ± 2 | 57 ± 4 | 26 ± 2 | 52 ± 4
O=P(O)(O)Oc1ccc(-c2ccccc2)cc1F [Compound 6h] | 46 ± 3 | 90 ± 7 | 45 ± 7 | 91 ± 14
O=P(O)(O)Oc1ccc(-c2ccccc2)cc1 [Compound 1, para‐biphenyl phosphate] | 7.3 ± 0.4 | 15 ± 1 | 47 ± 3 | 95 ± 6
O=P(O)(O)C(F)(F)c1ccc(-c2ccc3ccccc3c2)cc1F [Compound 8a] | 15 ± 2 | 30 ± 3 | 39 ± 1 | 79 ± 3
Cc1cc(-c2ccc(C(F)(F)P(=O)(O)O)c(F)c2)cs1 [Compound 8k] | 13 ± 1 | 26 ± 2 | 64 ± 7 | 130 ± 14
